How the values were obtained:
JAK-2 enzyme = JAK-2 enzyme (Homo sapiens, UniProt O60674); experiment: JAK2 Inhibition Assay; type: biochemical; settings: 15 μM poly(Glu)4Tyr, 12 μM ATP, 25° C.
Description: (§1) Compounds were screened for their ability to inhibit JAK3 using the assay shown below. Reactions were carried out in a kinase buffer containing 100 mM HEPES (pH 7.4), 1 mM DTT, 10 mM MgCl2, 25 mM NaCl, and 0.01% BSA. Substrate concentrations in the assay were 5 μM ATP (200 uCi/μmole ATP) and 1 μM poly(Glu)4Tyr. Reactions were carried out at 25° C. and 1 nM JAK3.
(§2) To each well of a 96 well polycarbonate plate was added 1.5 μl of a candidate JAK3 inhibitor along with 50 μl of kinase buffer containing 2 μM poly(Glu)4Tyr and […]. This was then mixed and […] of kinase buffer containing 2 nM JAK3 enzyme was added to start the reaction. After 20 minutes at room temperature (25° C.), the reaction was stopped with 50 μl of 20% trichloroacetic acid (TCA) that also contained 0.4 mM ATP. The entire contents of each well were then transferred to a 96 well glass fiber filter plate using a TomTek Cell Harvester. After washing, 60 μl of scintillation fluid was added and ^33P incorporation detected on a Perkin Elmer TopCount.
The assays were as described above in Example 36 except that JAK-2 enzyme was used, the final poly(Glu)4Tyr concentration was 15 μM, and final ATP concentration was 12 μM.
(§3) Tables 5 and 6 depict enzyme inhibition data (Ki) for certain exemplary compounds. Compound numbers in Tables 5 and 6 correspond to those compounds depicted in Tables 1 and 2, respectively.

JAK3 = biological target: T1, JAK3 (Homo sapiens, UniProt P52333); experiment: JAK3 Inhibition Assay; type: biochemical; settings: 1 μM poly(Glu)4Tyr, 5 μM ATP, 1 nM JAK3, 25° C.; read-out: JAK3 enzyme inhibition data (Ki)
T1 sequence (P52333 1-1124): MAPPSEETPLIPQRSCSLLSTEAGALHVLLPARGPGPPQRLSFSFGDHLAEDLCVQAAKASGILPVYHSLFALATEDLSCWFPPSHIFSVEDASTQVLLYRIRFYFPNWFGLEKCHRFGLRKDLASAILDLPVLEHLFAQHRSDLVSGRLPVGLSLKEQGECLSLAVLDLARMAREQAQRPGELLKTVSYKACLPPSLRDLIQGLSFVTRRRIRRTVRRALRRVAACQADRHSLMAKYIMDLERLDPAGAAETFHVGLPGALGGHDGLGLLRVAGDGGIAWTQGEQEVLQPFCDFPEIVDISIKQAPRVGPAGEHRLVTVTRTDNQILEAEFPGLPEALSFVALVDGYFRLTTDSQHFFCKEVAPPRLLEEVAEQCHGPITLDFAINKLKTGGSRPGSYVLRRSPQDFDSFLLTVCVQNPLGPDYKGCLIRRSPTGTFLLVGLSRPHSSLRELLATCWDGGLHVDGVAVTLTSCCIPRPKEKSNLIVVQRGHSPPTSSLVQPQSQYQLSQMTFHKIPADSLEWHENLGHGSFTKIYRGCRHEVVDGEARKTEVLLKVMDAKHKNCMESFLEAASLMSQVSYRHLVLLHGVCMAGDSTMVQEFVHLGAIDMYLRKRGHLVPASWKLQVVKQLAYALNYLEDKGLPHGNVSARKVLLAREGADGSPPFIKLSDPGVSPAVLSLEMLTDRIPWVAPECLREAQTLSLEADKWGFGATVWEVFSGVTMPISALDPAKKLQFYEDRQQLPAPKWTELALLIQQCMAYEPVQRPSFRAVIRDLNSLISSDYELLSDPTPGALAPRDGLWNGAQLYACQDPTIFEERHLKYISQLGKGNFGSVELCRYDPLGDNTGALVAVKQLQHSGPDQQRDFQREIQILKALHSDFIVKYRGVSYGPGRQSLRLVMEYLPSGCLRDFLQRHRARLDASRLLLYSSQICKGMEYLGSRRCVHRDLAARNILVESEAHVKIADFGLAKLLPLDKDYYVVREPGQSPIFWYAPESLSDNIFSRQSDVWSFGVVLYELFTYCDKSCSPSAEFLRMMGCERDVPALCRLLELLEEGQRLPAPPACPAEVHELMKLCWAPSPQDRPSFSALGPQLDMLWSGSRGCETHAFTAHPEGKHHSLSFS
Description: as §1, §2, §3

Chain of JAK-2 enzyme (O60674 whole entry, species assumed): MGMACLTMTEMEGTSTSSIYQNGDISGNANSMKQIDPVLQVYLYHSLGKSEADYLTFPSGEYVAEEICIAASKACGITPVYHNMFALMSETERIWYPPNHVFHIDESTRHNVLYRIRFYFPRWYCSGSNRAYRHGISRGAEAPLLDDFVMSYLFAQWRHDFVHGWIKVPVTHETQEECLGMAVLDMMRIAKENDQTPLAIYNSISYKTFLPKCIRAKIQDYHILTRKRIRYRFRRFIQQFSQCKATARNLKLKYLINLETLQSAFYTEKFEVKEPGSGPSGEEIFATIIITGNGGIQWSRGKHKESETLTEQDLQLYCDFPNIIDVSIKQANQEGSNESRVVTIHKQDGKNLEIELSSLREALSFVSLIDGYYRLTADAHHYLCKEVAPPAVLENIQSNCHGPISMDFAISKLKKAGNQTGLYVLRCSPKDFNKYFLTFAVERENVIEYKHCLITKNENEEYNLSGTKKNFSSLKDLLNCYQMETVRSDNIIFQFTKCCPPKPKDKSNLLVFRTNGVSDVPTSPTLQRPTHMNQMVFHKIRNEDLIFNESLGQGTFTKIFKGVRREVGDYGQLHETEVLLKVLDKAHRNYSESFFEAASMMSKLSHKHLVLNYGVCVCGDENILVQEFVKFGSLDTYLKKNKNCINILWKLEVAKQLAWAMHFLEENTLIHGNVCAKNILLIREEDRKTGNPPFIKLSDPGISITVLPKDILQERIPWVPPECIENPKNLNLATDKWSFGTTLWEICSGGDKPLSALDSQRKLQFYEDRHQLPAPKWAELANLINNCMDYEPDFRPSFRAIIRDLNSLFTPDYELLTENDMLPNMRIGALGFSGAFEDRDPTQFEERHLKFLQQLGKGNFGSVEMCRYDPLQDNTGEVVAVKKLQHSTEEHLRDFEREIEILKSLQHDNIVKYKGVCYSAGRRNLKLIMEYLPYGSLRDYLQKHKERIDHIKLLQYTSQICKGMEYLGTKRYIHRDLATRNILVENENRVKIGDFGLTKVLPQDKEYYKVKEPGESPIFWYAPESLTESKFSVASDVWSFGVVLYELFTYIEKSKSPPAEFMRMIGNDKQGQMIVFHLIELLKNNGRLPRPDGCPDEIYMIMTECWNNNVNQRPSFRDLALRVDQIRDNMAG

Compound	Ki (JAK-2 enzyme)	Ki (JAK3)
N#CC1CCCN1C(=O)c1cc(-c2ncnc3[nH]ccc23)c[nH]1 (centres unmarked) [Compound 52]	< 0.1 µM	0.1 to 0.5 µM
CC(C)CC(=O)N(C)c1nc(-c2ncnc3[nH]ccc23)cs1 [Compound 105]	< 0.1 µM	< 0.1 µM
CCN(Cc1ccccc1)C(=O)c1cc(-c2ncnc3[nH]ccc23)c[nH]1 [Compound 30]	< 0.1 µM	< 0.1 µM
CC(C)NC(=O)c1cc(-c2ncnc3[nH]ccc23)c[nH]1 [Compound 8]	< 0.1 µM	0.1 to 0.5 µM
CCCn1cc(-c2ncnc3[nH]ccc23)cn1 [Compound 106]	< 0.1 µM	0.1 to 0.5 µM
C=CCN(CC=C)C(=O)c1cc(-c2ncnc3[nH]ccc23)c[nH]1 [Compound 17]	< 0.1 µM	< 0.1 µM
N#CCCN(Cc1ccco1)C(=O)c1cc(-c2ncnc3[nH]ccc23)c[nH]1 [Compound 135]	< 0.1 µM	< 0.1 µM
COC1CCCC(C(=O)Nc2nc(-c3ncnc4[nH]ccc34)cs2)C1 (centres unmarked) [Compound 63]	< 0.1 µM	0.1 to 0.5 µM
C#CCNC(=O)c1cc(-c2ncnc3[nH]ccc23)c[nH]1 [Compound 14]	< 0.1 µM	0.1 to 0.5 µM
C#CCN(C(=O)c1cc(-c2ncnc3[nH]ccc23)c[nH]1)C1CCCCC1 [Compound 137]	< 0.1 µM	0.1 to 0.5 µM
C#CCN(C)C(=O)c1cc(-c2ncnc3[nH]ccc23)c[nH]1 [Compound 24]	< 0.1 µM	0.1 to 0.5 µM
N#CCN(Cc1ccccc1)C(=O)c1ccc(-c2ncnc3[nH]ccc23)o1 [Compound 124]	< 0.1 µM	0.1 to 0.5 µM
N#CCNC(=O)c1cc(-c2ncnc3[nH]ccc23)c[nH]1 [Compound 15]	< 0.1 µM	< 0.1 µM
O=C(Nc1nc(-c2ncnc3[nH]ccc23)cs1)C(O)C(F)(F)F (centres unmarked) [Compound 100]	< 0.1 µM	< 0.1 µM
CN(CCC#N)C(=O)c1ccc(-c2ncnc3[nH]ccc23)o1 [Compound 119]	< 0.1 µM	< 0.1 µM
O=C(CCC1CCCC1)Nc1nc(-c2ncnc3[nH]ccc23)cs1 [Compound 67]	< 0.1 µM	< 0.1 µM
N#CCCN(Cc1ccccc1)C(=O)c1cc(-c2ncnc3[nH]ccc23)c[nH]1 [Compound 29]	< 0.1 µM	< 0.1 µM
CCCN(CCC)C(=O)c1cc(-c2ncnc3[nH]ccc23)c[nH]1 [Compound 26]	< 0.1 µM	< 0.1 µM
CCN(CCC#N)C(=O)c1cc(-c2ncnc3[nH]ccc23)c[nH]1 [Compound 16]	< 0.1 µM	< 0.1 µM
C[C@@H]1CC[C@H](C)N1C(=O)c1cc(-c2ncnc3[nH]ccc23)c[nH]1 [Compound 132]	< 0.1 µM	0.1 to 0.5 µM
CC1CC1C(=O)Nc1nc(-c2ncnc3[nH]ccc23)cs1 (centres unmarked) [Compound 58]	< 0.1 µM	< 0.1 µM
CCOC(=O)C1CCN(C(=O)c2cc(-c3ncnc4[nH]ccc34)c[nH]2)CC1 [Compound 43]	0.5 to 5 µM	0.5 to 5 µM
Cc1c[nH]c2ncnc(-c3cnn(C)c3)c12 [Compound 160]	0.1 to 0.5 µM	0.1 to 0.5 µM
c1cc(-c2ncnc3[nH]ccc23)[nH]n1 [Compound 4]	0.5 to 5 µM	0.1 to 0.5 µM
O=C(c1ccc(-c2ncnc3[nH]ccc23)o1)N(CCC(F)(F)F)Cc1ccccc1 [Compound 123]	< 0.1 µM	< 0.1 µM
O=C(c1cc(-c2ncnc3[nH]ccc23)c[nH]1)N(CC1CC1)CC(F)(F)F [Compound 109]	< 0.1 µM	< 0.1 µM
C[C@@H](O)CNC(=O)c1cc(-c2ncnc3[nH]ccc23)c[nH]1 [Compound 133]	< 0.1 µM	0.1 to 0.5 µM
CCN(Cc1ccccc1)C(=O)c1ccc(-c2ncnc3[nH]ccc23)o1 [Compound 118]	< 0.1 µM	< 0.1 µM

Results, then the compound that gave them:

Ki (JAK-2 enzyme)	Ki (JAK3)	Compound
0.1 to 0.5 µM	0.1 to 0.5 µM	CC(C)(C)OC(=O)N1CCC(C(=O)Nc2nc(-c3ncnc4[nH]ccc34)cs2)CC1 [Compound 178]
< 0.1 µM	0.1 to 0.5 µM	N#CCCN(CCC(F)(F)F)C(=O)c1cc(-c2ncnc3[nH]ccc23)co1 [Compound 230, N-(2-cyanoethyl)-4-(7H-pyrrolo[2,3-d]pyrimidin-4-yl)-N-(3,3,3-trifluoropropyl)furan-2-carboxamide]
< 0.1 µM	0.1 to 0.5 µM	CCCN(CC)C(=O)c1cc(-c2ncnc3[nH]cc(C)c23)c[nH]1 [Compound 206]
0.1 to 0.5 µM	0.1 to 0.5 µM	CC(C)CN(CCC(F)(F)F)C(=O)c1cc(-c2ncnc3[nH]ccc23)co1 [Compound 252]
< 0.1 µM	0.1 to 0.5 µM	CCN(CCC#N)C(=O)c1cc(-c2ncnc3[nH]cc(C)c23)c[nH]1 [Compound 207]
< 0.1 µM	0.1 to 0.5 µM	CCCn1cc(-c2ncnc3[nH]cc(Cl)c23)cn1 [Compound 165]
< 0.1 µM	0.1 to 0.5 µM	CC(=O)NCCC(=O)Nc1nc(-c2ncnc3[nH]ccc23)cs1 [Compound 174]
< 0.1 µM	< 0.1 µM	C=CCN(CC=C)C(=O)c1ccc(-c2ncnc3[nH]ccc23)o1 [Compound 217]
< 0.1 µM	0.1 to 0.5 µM	O=C(c1cc(-c2ncnc3[nH]ccc23)c[nH]1)N(CC1CCCC1)CC(F)(F)F [Compound 186]
< 0.1 µM	< 0.1 µM	Cc1c[nH]c2ncnc(-c3c[nH]c(C(=O)N(CCC(F)(F)F)CC4CC4)c3)c12 [Compound 208]
0.1 to 0.5 µM	0.1 to 0.5 µM	O=C1[C@H]2CCCC[C@H]2C(=O)N1c1nc(-c2ncnc3[nH]ccc23)cs1 [Compound 181]
< 0.1 µM	0.1 to 0.5 µM	CCCCN(CC)C(=O)c1cc(-c2ncnc3[nH]ccc23)cn1C [Compound 232]
< 0.1 µM	< 0.1 µM	O=C(c1ccc(-c2ncnc3[nH]ccc23)o1)N(CCC(F)(F)F)C1CCCC1 [Compound 193]
< 0.1 µM	0.1 to 0.5 µM	C[C@@H]1CC[C@@H](C)N1C(=O)c1cc(-c2ncnc3[nH]ccc23)cn1C [Compound 224]
< 0.1 µM	< 0.1 µM	N#CCCN(CC1CC1)C(=O)c1coc(-c2ncnc3[nH]ccc23)c1 [Compound 183]
< 0.1 µM	0.1 to 0.5 µM	C=CCN(C(=O)c1cc(-c2ncnc3[nH]ccc23)co1)[C@@H](C)c1ccccc1 [Compound 248]
< 0.1 µM	0.1 to 0.5 µM	O=C(c1cc(-c2ncnc3[nH]ccc23)c[nH]1)N(CCC(F)(F)F)C1CCCC1 [Compound 188]
< 0.1 µM	0.1 to 0.5 µM	CC(=O)NCCCC(=O)Nc1nc(-c2ncnc3[nH]ccc23)cs1 [Compound 168]
< 0.1 µM	< 0.1 µM	COC(=O)N1CCC(C(=O)Nc2nc(-c3ncnc4[nH]ccc34)cs2)CC1 [Compound 171]
< 0.1 µM	0.1 to 0.5 µM	CC(C)Cn1cc(-c2ncnc3[nH]cc(Cl)c23)cn1 [Compound 166]
< 0.1 µM	< 0.1 µM	CCN(Cc1ccccc1)C(=O)c1cc(-c2ncnc3[nH]cc(Cl)c23)c[nH]1 [Compound 199]
< 0.1 µM	< 0.1 µM	CCCCN(CC)C(=O)c1cc(-c2ncnc3[nH]cc(Cl)c23)c[nH]1 [Compound 198]
< 0.1 µM	< 0.1 µM	CC#CCN(CC(C)C)C(=O)c1cc(-c2ncnc3[nH]ccc23)c[nH]1 [Compound 189]
< 0.1 µM	< 0.1 µM	Cn1cc(-c2ncnc3[nH]ccc23)cc1C(=O)N(CC1CC1)CC(F)(F)F [Compound 228]

Reference: US20090227607A1, “DEAZAPURINES USEFUL AS INHIBITORS OF JANUS KINASES” (priority 2006, published 2009)
